The text below walks through data of ChEMBL document CHEMBL1150791, “blaVIM-2-harboring integrons isolated in India, Russia, and the United States arise from an ancestral class 1 integron predating the formation of the 3' conserved sequence” (2007).

The test system of this test is Pseudomonas aeruginosa. Kind of test: Antibacterial activity against blaVIM2-harboring integrons containing Pseudomonas aeruginosa 42 isolate from ventilator-associated pneumonia patient. The test is classed as functional.
Regarding `NCC[C@H](O)C(=O)N[C@@H]1C[C@H](N)[C@@H](O[C@H]2O[C@H](CN)[C@@H](O)[C@H](O)[C@H]2O)[C@H](O)[C@H]1O[C@H]1O[C@H](CO)[C@@H](O)[C@H](N)[C@H]1O` [AMIKACIN], the Activity came to 8 µg/mL.
To `CC(C)(O/N=C(\C(=O)N[C@@H]1C(=O)N2C(C(=O)[O-])=C(C[n+]3ccccc3)CS[C@H]12)c1csc(N)n1)C(=O)O` [CEFTAZIDIME] belongs 96 µg/mL; to `C[C@@H](O)[C@H]1C(=O)N2C(C(=O)O)=C(SCCNC=N)C[C@H]12` [IMIPENEM ANHYDROUS], over 32 µg/mL.
The value for `CCN1CCN(C(=O)N[C@@H](C(=O)N[C@@H]2C(=O)N3[C@@H]2SC(C)(C)[C@@H]3C(=O)O)c2ccccc2)C(=O)C1=O` [PIPERACILLIN] was over 256 µg/mL.
The value for `C[C@@H](O)[C@H]1C(=O)N2C(C(=O)O)=C(S[C@@H]3CN[C@H](C(=O)N(C)C)C3)[C@H](C)[C@H]12` [MEROPENEM] was over 32 µg/mL.
With `CO/N=C(\C(=O)N[C@@H]1C(=O)N2C(C(=O)[O-])=C(C[N+]3(C)CCCC3)CS[C@H]12)c1csc(N)n1` [CEFEPIME], the Activity was over 256 µg/mL.
The value for COLISTIN was 1 µg/mL.
To `C[C@H]1[C@H](NC(=O)/C(=N\OC(C)(C)C(=O)O)c2csc(N)n2)C(=O)N1S(=O)(=O)O` [AZTREONAM] belongs over 256 µg/mL.
To `O=C(O)c1cn(C2CC2)c2cc(N3CCNCC3)c(F)cc2c1=O` [CIPROFLOXACIN] belongs over 32 µg/mL.
